Counter-ions that a name gives are not always drawn.
These compounds were tested against T1, human GPR52 (Homo sapiens, UniProt Q9Y2T5) (assay: Increased intracellular cAMP levels in human GPR52 expression CHO cells (AlphaScreen cAMP assay)). Conditions: 1 μM test compound, 30 min at 37° C., human GPR52 expression CHO (dhfr−) cells; intracellular cAMP level, 100% = 1 μM 3-(6-(2-(3,4-dimethoxyphenyl)ethoxy)pyridin-2-yl)-N-(2-pyrrolidin-1-ylethyl)benzamide, 0% = DMSO.
T1 construct: expressed in transfected cells; host or cells: CHO (dhfr-) cells
Type: cell-based
Description: Increased Intracellular cAMP Levels in Human GPR52 Expression CHO Cells
1×10^4 human GPR52 expression CHO (dhfr−) cells were incubated with 1 μM test compound for 30 min at 37° C. in 30 μL assay buffer (HBSS (containing Ca^2+ and Mg^2+), 0.5% BSA, 100 μM IBMX, 100 μM Ro 20-1724, 5 mM HEPES (pH 7.55)) using an OptiPlate-384 (by PerkinElmer). The intracellular cAMP level was then assayed with an EnVision (by PerkinElmer) according to the protocol of the AlphaScreen cAMP Assay Kit (by PerkinElmer). The GPR52 agonist activity was calculated, assuming the intracellular cAMP level to be 100% in the presence of 1 μM of 3-(6-(2-(3,4-dimethoxyphenyl)ethoxy)pyridin-2-yl)-N-(2-pyrrolidin-1-ylethyl)benzamide obtained in Reference Example 39 and assuming the intracellular cAMP level to be 0% when DMSO was added instead of test compound.

T1 sequence (Q9Y2T5 whole entry): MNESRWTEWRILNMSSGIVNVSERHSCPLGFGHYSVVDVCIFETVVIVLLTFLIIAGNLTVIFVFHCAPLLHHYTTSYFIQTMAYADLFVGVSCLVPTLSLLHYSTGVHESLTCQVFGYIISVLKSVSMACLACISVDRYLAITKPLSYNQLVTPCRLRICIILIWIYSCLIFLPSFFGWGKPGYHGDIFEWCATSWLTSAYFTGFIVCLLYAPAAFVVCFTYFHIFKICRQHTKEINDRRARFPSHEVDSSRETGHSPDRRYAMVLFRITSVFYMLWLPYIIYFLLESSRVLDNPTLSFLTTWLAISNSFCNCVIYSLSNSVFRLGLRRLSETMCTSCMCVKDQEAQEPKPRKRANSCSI

Compound	GPR52 agonist activity (%)
COc1cccc(CCOc2cccc(-c3cccc(C(=O)Nc4ccc(F)nc4)c3)n2)c1 [Working Example 75, N-(6-Fluoropyridin-3-yl)-3-(6-(2-(3-methoxyphenyl)ethoxy)pyridin-2-yl)benzamide]	60%
COc1ccc(CCOc2cccc(-c3cccc(C(=O)NCCN4CCCC4)c3)c2)cc1OC [Working Example 40, 3′-(2-(3,4-Dimethoxyphenyl)ethoxy)-N-(2-pyrrolidin-1-ylethyl)biphenyl-3-carboxamide]	87%
COc1ccc(CCNc2nccc(-c3cccc(C(=O)N(C)CCCN(C)C)c3)n2)cc1OC [Working Example 37, 3-(2-(2-(3,4-Dimethoxyphenyl)ethylamino)pyrimidin-4-yl)-N-(3-dimethylaminopropyl)-N-methylbenzamide hydrochloride]	92%
COc1ccc(CCNc2nccc(-c3cccc(NC(=O)CCCN4CCCC4)c3)n2)cc1OC [Working Example 19]	85%
O=C(NCCN1CCCC1)c1cccc(-c2ccnc(NCCc3cccc(F)c3)n2)c1 [Working Example 143]	72%
COc1ccc(CCOc2cc(-c3cccc(C(=O)NCCN4CCCC4)c3)ccn2)cc1OC [Working Example 42, 3-(2-(2-(3,4-Dimethoxyphenyl)ethoxy)pyridin-4-yl)-N-(2-pyrrolidin-1-ylethyl)benzamide]	71%
C[S+]([O-])CCNC(=O)c1cccc(-c2cccc(Oc3cc(Cl)cc(Cl)c3)n2)c1 (stereo not drawn) [Working Example 96, 3-(6-(3,5-dichlorophenoxy)pyridin-2-yl)-N-(2-(methylsulfinyl)ethyl)benzamide]	66%
N#CCCNC(=O)c1cccc(-c2cccc(Oc3cccc(Cl)c3)n2)c1 [Working Example 125, 3-(6-(3-Chlorophenoxy)pyridin-2-yl)-N-(2-cyanoethyl)benzamide]	55%
COc1ccc(CCNc2nccc(-c3cccc(NC(=O)CCN(C)C)c3)n2)cc1OC [Working Example 29, N-(3-(2-((2-(3,4-dimethoxyphenyl)ethyl)amino)pyrimidin-4-yl)phenyl)-N^3,N^3-dimethyl-β-alaninamide]	85%
COc1ccc(CCOc2cccc(-c3cccc(C(N)=O)c3)n2)cc1OC [Working Example 49]	55%
CC(C)(CO)NC(=O)c1cccc(-c2cccc(Oc3cc(Cl)cc(Cl)c3)n2)c1 [Working Example 91, 3-(6-(3,5-Dichlorophenoxy)pyridin-2-yl)-N-(2-hydroxy-1,1-dimethylethyl)benzamide]	61%
COc1ccc(CCOc2cccc(-c3cccc(NC(=O)NCCN(C)C)c3)n2)cc1OC [Working Example 53]	113%

Continued, values first:

GPR52 agonist activity (%)	Compound
97%	COc1ccc(CCOc2cccc(-c3cccc(C(=O)NCCCn4ccnc4)c3)n2)cc1OC [Working Example 203]
68%	CNC(=O)c1cccc(-c2cccc(OCCc3ccc(OC)c(OC)c3)n2)c1 [Working Example 167]
79%	COc1ccc(CCOc2cccc(-c3cccc(C(=O)NCCCO)c3)n2)cc1OC [Working Example 170]
82%	COc1ccc(CCOc2cccc(-c3cccc(NC(=O)CC4NCCc5ccccc54)c3)n2)cc1OC (stereo not drawn) [Working Example 318]
85%	COc1ccc(CCOc2cccc(-c3cccc(C(=O)NCCc4ccncc4)c3)n2)cc1OC [Working Example 201]
64%	O=C(NCCN1CCCC1)c1cccc(-c2ccnc(NCCc3cccs3)n2)c1 [Working Example 152]

Source: patent US20110009421A1, “COMPOUND HAVING 6-MEMBERED AROMATIC RING” (TAKEDA PHARMACEUTICAL COMPANY LIMITED, priority 2008, published 2011)
